# Experimental data reported in US9284543B2, “Neutral active soluble truncated PH20 polypeptides and uses thereof” (Halozyme, Inc., priority 2008, dated 2016).
# B1: SPAM1-AFLK: C-terminally truncated human PH20, precursor 470 aa (SEQ ID NO:30), mature 435 aa (SEQ ID NO:82) (protein, listed as Homo sapiens)
# chain: MGVLKFKHIFFRSFVKSSGVSQIVFTFLLIPCCLTLNFRAPPVIPNVPFLWAWNAPSEFCLGKFDEPLDMSLFSFIGSPRINATGQGVTIFYVDRLGYYPYIDSITGVTVNGGIPQKISLQDHLDKAKKDITFYMPVDNLGMAVIDWEEWRPTWARNWKPKDVYKNRSIELVQQQNVQLSLTEATEKAKQEFEKAGKDFLVETIKLGKLLRPNHLWGYYLFPDCYNHHYKKPGYNGSCFNVEIKRNDDLSWLWNESTALYPSIYLNTQQSPVAATLYVRNRVREAIRVSKIPDAKSPLPVFAYTRIVFTDQVLKFLSQDELVYTFGETVALGASGIVIWGTLSIMRSMKSCLLLDNYMETILNPYIINVTLAAKMCSQVLCQEQGVCIRKNWNSSDYLHLNPDNFAIQLEKGGKFTVRGKPTLEDLEQFSEKFYCSCYSTLSCKEKADVKDTDAVDVCIADGVCIDAFLK
# modifications: HuPH20 precursor 1-470
# B2: VASL + PLC: full length human PH20 (SEQ ID NO: 108) with PLC treatment (protein, listed as Homo sapiens)
# chain: LNFRAPPVIPNVPFLWAWNAPSEFCLGKFDEPLDMSLFSFIGSPRINATGQGVTIFYVDRLGYYPYIDSITGVTVNGGIPQKISLQDHLDKAKKDITFYMPVDNLGMAVIDWEEWRPTWARNWKPKDVYKNRSIELVQQQNVQLSLTEATEKAKQEFEKAGKDFLVETIKLGKLLRPNHLWGYYLFPDCYNHHYKKPGYNGSCFNVEIKRNDDLSWLWNESTALYPSIYLNTQQSPVAATLYVRNRVREAIRVSKIPDAKSPLPVFAYTRIVFTDQVLKFLSQDELVYTFGETVALGASGIVIWGTLSIMRSMKSCLLLDNYMETILNPYIINVTLAAKMCSQVLCQEQGVCIRKNWNSSDYLHLNPDNFAIQLEKGGKFTVRGKPTLEDLEQFSEKFYCSCYSTLSCKEKADVKDTDAVDVCIADGVCIDAFLKPPMETEEPQIFYNASPSTLSATMFIVSILFLIISSVASL
# modifications: PLC treatment; Mature Human PH20 36-509
# Experiments:
# [1] = system: HZ24-2B2 cells expressing rHuPH20; assay: Treatment of rHuPH20-expressing cells with glycosylation inhibitors; type: cell-based, Chinese Hamster; conditions: for Effect on PH20 activity (in words): tissue culture media and inside the cell
# Protocol: Briefly, 1×10^6 HZ24-2B2 cells expressing rHuPH20 (see Example 14 below) were seeded in 24 mL complete CD-CHO medium in two 125 mL flasks. Tunicamycin (dissolved in DMSO) or Kifunensine (freshly dissolved in water) was added to a final concentration of 5 μg/mL (containing 12 μL DMSO). As a control, one flask was seeded with 1×10^6 HZ24-2B2 cells expressing rHuPH20 and 12 μL DMSO was added as a vehicle control. Following addition of either tunicamycin or kifunensine, the cells were incubated for 4-6 hours at 37° C. with 5% CO2. Following expression, a 2 mL culture was removed and centrifuged for 5 minutes at 500 g. The supernatant was stored at 4° C. and the cell pellets were stored at −20° C. The remaining 22 mL cultures were centrifuged for 5 minutes at 500 g. The supernatant was stored at 4° C. The cells were resuspended in 22 mL complete CD-CHO medium in the original two 125 mL flasks. Tunicamycin or Kifunensine was added to the culture at a final concentration of 5 μg/mL and the cells were incubated at 37° C. with 5% CO2. Two mL (2 mL) cultures were removed from each flask at approximately every 24 hours post changing medium. For each time point, the supernatant was stored at 4° C. and the cell pellets were stored at −20° C. The expression of rHuPH20 was analyzed by Western blot analysis and the hyaluronidase activity was measured using the biotinylated HA enzymatic assay (as described in Examples 3 and 5 above).
# [2] = system: CHO-S cells; assay: Western blot analysis of PH20 expression in media and cells after transient expression; type: cell-based, Chinese Hamster; conditions: media versus cells
# Protocol: The mutant PH20-HZ24 plasmids generated in Example 1 were transiently […] into CHO—S cells (derived from Chinese Hamster Ovary CHO K1 cells) using GeneJuice® (Novagen) according to the manufacturer's instructions. In short, the CHO—S cells were grown in CD CHO medium supplemented with L-glutamine. Prior to transfection, the CHO—S cells were plated in 6-well plates, with approximately 5×10^5 cells per well, and grown overnight at 37° C. with 5% CO2. The medium was then removed and the CHO—S cells were washed 2 times with 1 mL serum-free medium. GeneJuice® was mixed with serum-free media followed by the addition of 2 μg mutant-HZ24 DNA. After incubating at room temperature for 5-15 minutes, the GeneJuice®/DNA mixture was added dropwise to an individual well containing the washed CHO—S cells. After 4 hours, the medium was replaced with 1 mL CD-CHO medium supplemented with L-glutamine and the cells were incubated for 72 hours at 37° C. with 5% CO2. Following expression, the media and cells were harvested separately.
# The mutant PH20-HZ24 plasmids generated in Example 1 were transiently […] into CHO—S cells using GeneJuice® (Novagen) according to the manufacturer's instructions. […]
# In this example, following transient expression, as described in Example 2 above, the media and cells were harvested separately and analyzed for PH20 expression and solublility by Western blot analysis. Solubility of the C-terminus truncation mutants was determined by examining whether the expressed protein was present in the growth media or in the cells. […] Cells expressing these mutants were treated with phosphoinositol-phospholipase C (PI-PLC), which cleaves the GPI-anchor allowing the release of soluble protein into the media, and the presence of PH20 in the resulting media and cells was determined by Western blot analysis.
# Non-reduced samples were run on a 4-20% Tris-Glycine gel and transferred to PVDF membrane using iBlot (Invitrogen). For the Western blot, rabbit anti-PH20 IgG (0.5 μg/mL) was used as the primary antibody and HRP-conjugated goat anti-rabbit IgG (0.1 ng/mL, Cat#DC03L, EMD) was used as the secondary antibody. Evidence of expression is determined by a band at approximately 66 kDa, corresponding to recombinant human PH20 hyaluronidase.
# [3] = Microtiter hyaluronidase activity assay with biotinylated-hyaluronic acid; type: biochemical; conditions: Table 6, 72 hour post transfection supernatant
# Protocol: In Example 4, the hyaluronidase activity of truncated human PH20 hyaluronidase is determined using biotinylated hyaluronic acid. The free carboxyl groups on the glucuronic acid residues of hyaluronic acid are biotinylated, and the biotinylated hyaluronic acid substrate is covalently coupled to a microtiter plate. Following incubation with hyaluronidase, the residual biotinylated hyaluronic acid substrate is detected using an avidin-peroxidase reaction, and compared to that obtained following reaction with hyaluronidase standards of known activity. […] The sensitivity permits rapid measurement of hyaluronidase activity from cultured cells and biological samples with an inter-assay variation of less than 10%.
# In this example, the human PH20 hyaluronidase carboxy-terminus deletion mutants were tested for their PH20 hyaluronidase activity using a microtiter assay with biotinylated-hyaluronic acid (biotinylated-HA or bHA). The human PH20 hyaluronidase carboxy-terminus deletion mutants were tested for hyaluronidase activity at both pH 7.4 and pH 5.5.
# In short, a 4×BH 96-well plate was coated with biotinylated-HA (1.1 MDa). The 72 hour post transfection supernatant from cells transfected with human PH20 hyaluronidase carboxy-terminus deletion mutants was diluted in buffer at either pH 7.4 or pH 5.5 and added to individual wells of the plate and allowed to incubate at 37° C. for 90 minutes. The reaction was terminated by addition of 4M guanidine HCl. The wells were washed 4× with Phosphate Buffered Saline with Tween20 (PBST) to remove any digested biotinylated-HA followed by addition of streptavidin-HRP for 1 hour at room temperature. The wells were washed 4× with PBST and the plate was developed with TMB. The plate was read at 450 nm using an ELISA plate reader. Hyaluronidase activity (in Units/mL) was determined by interpolating the measured absorbance at 450 nm with a hyaluronidase reference standard curve. Full length mature human PH20 hyaluronidase and untransfected CHO cells were used as positive and negative controls.
molecule,measurement,setting,value
O=C1N[C@@H]2[C@@H](O)[C@@H](O)[C@H](O)[C@@H](CO)N2C1=O [Kifunensine],PH20 activity,"[1]; Cell Pellets, With Kifunensine, 0 hours",22.25 U/mL
same,PH20 activity,"[1]; Cell Pellets, With Kifunensine, 6 hours",21.25 U/mL
same,PH20 activity,"[1]; Cell Pellets, With Kifunensine, 24 hours",27.75 U/mL
same,PH20 activity,"[1]; Cell Pellets, With Kifunensine, 50 hours",43 U/mL
same,PH20 activity,"[1]; Cell Pellets, With Kifunensine, 72 hours",98.75 U/mL
same,PH20 activity,"[1]; Cell Pellets, With Kifunensine, 96 hours",208.75 U/mL
same,PH20 activity,"[1]; Cell Pellets, With Kifunensine, […]",497.25 U/mL
same,PH20 activity,"[1]; Tissue Culture Media, With Kifunensine, 0 hours",0.4 U/mL
same,PH20 activity,"[1]; Tissue Culture Media, With Kifunensine, 6 hours",23.85 U/mL
same,PH20 activity,"[1]; Tissue Culture Media, With Kifunensine, 24 hours",129.6 U/mL
same,PH20 activity,"[1]; Tissue Culture Media, With Kifunensine, 50 hours",299.7 U/mL
same,PH20 activity,"[1]; Tissue Culture Media, With Kifunensine, 72 hours",535.95 U/mL
same,PH20 activity,"[1]; Tissue Culture Media, With Kifunensine, 96 hours",945 U/mL
same,PH20 activity,"[1]; Tissue Culture Media, With Kifunensine, […]",2968.65 U/mL
same,Viable Cells,"[1]; With Kifunensine 5 μg/mL, 0 hours",1 ×10^6
same,Viable Cells,"[1]; With Kifunensine 5 μg/mL, 6 hours",1 ×10^6
same,Viable Cells,"[1]; With Kifunensine 5 μg/mL, 24 hours",1.2 ×10^6
same,Viable Cells,"[1]; With Kifunensine 5 μg/mL, 50 hours",2.1 ×10^6
same,Viable Cells,"[1]; With Kifunensine 5 μg/mL, 72 hours",3 ×10^6
same,Viable Cells,"[1]; With Kifunensine 5 μg/mL, 96 hours",3.7 ×10^6
same,Viable Cells,"[1]; With Kifunensine 5 μg/mL, […]",5.8 ×10^6
same,Effect on PH20 activity (in words),[1]; 5 μg/mL,did not affect the activity of PH20
same,Effect on expression and secretion of rHuPH20,"[1]; western blot analysis, 5 μg/mL",inhibited the expression and secretion of rHuPH20
Tunicamycin,Effect on cell viability (in words),[1]; 5 μg/mL,complete loss of cell viability
same,PH20 activity,"[1]; Cell Pellets, With Tunicamycin, 0 hours",34.50 U/mL
same,PH20 activity,"[1]; Cell Pellets, With Tunicamycin, 1 hours",38.00 U/mL
same,PH20 activity,"[1]; Cell Pellets, With Tunicamycin, 2 hours",34.00 U/mL
same,PH20 activity,"[1]; Cell Pellets, With Tunicamycin, 4 hours",18.00 U/mL
same,PH20 activity,"[1]; Cell Pellets, With Tunicamycin, 25 hours",1.00 U/mL
same,PH20 activity,"[1]; Cell Pellets, With Tunicamycin, 49 hours",0.80 U/mL
same,PH20 activity,"[1]; Cell Pellets, With Tunicamycin, 73 hours",0.30 U/mL
same,PH20 activity,"[1]; Cell Pellets, With Tunicamycin, 91 hours",0.30 U/mL
same,PH20 activity,"[1]; Tissue Culture Media, With Tunicamycin, 0 hours",0.50 U/mL
same,PH20 activity,"[1]; Tissue Culture Media, With Tunicamycin, 1 hours",2.80 U/mL
same,PH20 activity,"[1]; Tissue Culture Media, With Tunicamycin, 2 hours",5.00 U/mL
same,PH20 activity,"[1]; Tissue Culture Media, With Tunicamycin, 4 hours",8.80 U/mL
same,PH20 activity,"[1]; Tissue Culture Media, With Tunicamycin, 25 hours",5.80 U/mL
same,PH20 activity,"[1]; Tissue Culture Media, With Tunicamycin, 49 hours",6.80 U/mL
same,PH20 activity,"[1]; Tissue Culture Media, With Tunicamycin, 73 hours",7.80 U/mL
same,PH20 activity,"[1]; Tissue Culture Media, With Tunicamycin, 91 hours",7.50 U/mL
same,Viable Cells,"[1]; With Tunicamycin 5 μg/mL, 0 hours",1.04 ×10^6
same,Viable Cells,"[1]; With Tunicamycin 5 μg/mL, 1 hours",1.04 ×10^6
same,Viable Cells,"[1]; With Tunicamycin 5 μg/mL, 2 hours",1.04 ×10^6
same,Viable Cells,"[1]; With Tunicamycin 5 μg/mL, 4 hours",0.910 ×10^6
same,Viable Cells,"[1]; With Tunicamycin 5 μg/mL, 25 hours",1.08 ×10^6
same,Viable Cells,"[1]; With Tunicamycin 5 μg/mL, 49 hours",0.200 ×10^6
same,Viable Cells,"[1]; With Tunicamycin 5 μg/mL, 73 hours",0.080 ×10^6
same,Viable Cells,"[1]; With Tunicamycin 5 μg/mL, 91 hours",0 ×10^6
same,Accumulation of deglycosylated human PH20 inside the cell,"[1]; one hour of treatment, SDS-PAGE mobility shift to approximately 56 kDa in cell pellet fractions",accumulation of deglycosylated human PH20 hyaluronidase inside the cell
same,Effect on PH20 activity (in words),[1]; 5 μg/mL,inhibits PH20 activity
B1,Expressed in Media,[2],YES
same,pH 5.5 Activity,[3],2.925 Units/ml
same,pH 7.4 Activity,[3],3.204 Units/ml
B2,pH 5.5 Activity,[3],2.313 Units/ml
same,pH 7.4 Activity,[3],3.96 Units/ml
